Test results: patent US6428974B1, “Microplate for drug susceptibility testing containing a drug, a color reagent, and color suppressant” (Kanto Kagaku Kabushiki Kaisha, priority 1998, dated 2002)
In brackets after ≈: the same amount, converted by molar mass.

Columns and labels:
[1] = system: Candida albicans ATCC 24433; assay: Turbidity method (Japanese Society for Medical Mycology microdilution); format: cell-based; settings: C. albicans ATCC 24433, range over repeated tests (n = 10); for MIC: Candida albicans, ATCC24433
Protocol: (§1) For the comparison was used the 1.2% glucose MOPS buffered RPMI 1640medium and it was carried out according to the proposed method of Japanese Society for Medical Mycology (the microdilution method of 0.2 ml incubation system).

[2] = system: Candida albicans ATCC 90028; assay: as above; format: cell-based; settings: C. albicans ATCC 90028, range over repeated tests (n = 10); for MIC: Candida albicans, ATCC90028
Protocol: as §1

Candida krusei ATCC 6258 [3] = assay: as above; format: cell-based; settings: C. krusei ATCC 6258, range over repeated tests (n = 10); for MIC: Pichia kudriavzevii, ATCC6258
Protocol: as §1

[4] = system: Candida parapsilosis ATCC 22019; assay: as above; format: cell-based; settings: C. parapsilosis ATCC 22019, range over repeated tests (n = 10); for MIC: Lodderomyces parapsilosis, ATCC22019
Protocol: as §1

[5] = system: Candida parapsilosis ATCC 90018; assay: as above; format: cell-based; settings: C. parapsilosis ATCC 90018, range over repeated tests (n = 7); for MIC: Lodderomyces parapsilosis, ATCC90018
Protocol: as §1

[6] = system: Candida tropicalis ATCC 750; assay: as above; format: cell-based; settings: C. tropicalis ATCC 750, range over repeated tests (n = 10); for MIC: Candida tropicalis, ATCC750
Protocol: as §1

[7] = system: Candida albicans ATCC 24433; assay: Microplate method of the invention (WST-8 color reagent); format: cell-based; settings: C. albicans ATCC 24433, range over repeated tests (n = 10), AMPH complete inhibition, 5-FC/FLCZ/MCZ IC80, 24 or 48 hrs, 35°C; for MIC: Candida albicans, ATCC24433
Protocol: (§2) Four drugs of AMPH, 5-FC, FLCZ and MCZ were considered. The drug solution for the solid phase formation on the microplate was prepared as follows. The drug was dissolved in dimethylsulfoxide (DMSO) or diluted by using it. The solution was prepared so that it was AMPH 128 μg/ml, 5-FC 512 μg/ml, FLCZ 512 μg/ml or MCZ 256 μg/ml. By the use of the prepared drug the two fold dilution series was prepared in an appropriate concentration range with DMSO or water, and separately infused by 25 μl/well and formed into the dry and solid phase under vacuum (13.3-26.6 Pa) for 24 hrs. After the solid phase formation of the antifungal, the color reagent consisting of WST-8 0.7 mM, 1-methoxy PMS 3.5 μM, potassium ferricyanide 0.5 mM and potassium ferrocyanide 0.5 mM was separately infused by 20 μl/well and formed into the dry and solid phase under vacuum for 24 hrs.
(§3) By using the colony within 24 hrs. in the incubation was prepared the fungal suspension with the sterile saline 5 ml. The fungal suspension corresponding to McFarland # 0.5 was prepared by measuring the absorbancy at the wave length of 530 nm. 0.1 ml of the prepared fungal suspension was taken by the micropipette, added to 0.9 ml of the 1.2% glucose MOPS buffered PRMI 1640 medium, and stirred thoroughly by the vortex-mixer, and then 0.1 ml of this was taken by the micropipette, added to 20 ml of the […] MOPS buffered PRMI 1640 medium, and stirred thoroughly by the vortex-mixer to prepare the replicated fungal suspension (0.5×10^3−2.5×10^3 cfu/ml). The replicated fungal suspension prepared was separately inoculated by 200 μl into each well of the microplate dryly fixed with the drug having the concentration gradient of the two fold dilution prepared in the above B. After lidding the plate the aerobic culture was done at 35±1° C. The absorbancy at 630 nm of the growth control (the testing fungal strains were incubated in the well wherein the antifungal agents and the color reagent was not formed into the solid phase) after the 24 hrs. incubation was measured.
(§4) After stirring the microplate under shaking for 1 min., the absorbency of the dominant wave length 450 nm and the complementary wavelength 630 nm was measured, and the reading was carried out by the following method.
(§5) 1. The minimum concentration showing the absorbancy in AMPH equal to or less than that in the negative control was made the minimum growth inhibition concentration (MIC).
(§6) 2. The 80% growth inhibition concentration (IC 80) was read in 5-Fc, FLCZ and MCZ. The drug concentration of the well showing the absorbancy equal to or less than the absorbency obtained by the following equation was made MIC.
(§7) (IC80=(positive control−negative control)×0.2 +negative control)

[8] = system: Candida albicans ATCC 90028; assay: as above; format: cell-based; settings: C. albicans ATCC 90028, range over repeated tests (n = 10), AMPH complete inhibition, 5-FC/FLCZ/MCZ IC80, 24 or 48 hrs, 35°C; for MIC: Candida albicans, ATCC90028
Protocol: as §2, §3, §4, §5, §6, §7

Candida krusei ATCC 6258 [9] = assay: as above; format: cell-based; settings: C. krusei ATCC 6258, range over repeated tests (n = 10), AMPH complete inhibition, 5-FC/FLCZ/MCZ IC80, 24 or 48 hrs, 35°C; for MIC: Pichia kudriavzevii, ATCC6258
Protocol: as §2, §3, §4, §5, §6, §7

[10] = system: Candida parapsilosis ATCC 22019; assay: as above; format: cell-based; settings: C. parapsilosis ATCC 22019, range over repeated tests (n = 10), AMPH complete inhibition, 5-FC/FLCZ/MCZ IC80, 24 or 48 hrs, 35°C; for MIC: Lodderomyces parapsilosis, ATCC22019
Protocol: as §2, §3, §4, §5, §6, §7

[11] = system: Candida parapsilosis ATCC 90018; assay: as above; format: cell-based; settings: C. parapsilosis ATCC 90018, range over repeated tests (n = 7), AMPH complete inhibition, 5-FC/FLCZ/MCZ IC80, 24 or 48 hrs, 35°C; for MIC: Lodderomyces parapsilosis, ATCC90018
Protocol: as §2, §3, §4, §5, §6, §7

[12] = system: Candida tropicalis ATCC 750; assay: as above; format: cell-based; settings: C. tropicalis ATCC 750, range over repeated tests (n = 10), AMPH complete inhibition, 5-FC/FLCZ/MCZ IC80, 24 or 48 hrs, 35°C; for MIC: Candida tropicalis, ATCC750
Protocol: as §2, §3, §4, §5, §6, §7

[13] = system: Candida parapsilosis ATCC 22019; settings: C. parapsilosis ATCC 22019; MIC acceptable range of NCCLS M27-A; cited from earlier work
Candida krusei ATCC 6258 [14] = settings: C. krusei ATCC 6258; MIC acceptable range of NCCLS M27-A; cited from earlier work
[15] = system: Candida albicans ATCC 90028; settings: C. albicans ATCC 90028; MIC acceptable range of NCCLS M27-A; cited from earlier work
[16] = system: Candida albicans ATCC 24433; settings: C. albicans ATCC 24433; MIC acceptable range of NCCLS M27-A; cited from earlier work
[17] = system: Candida parapsilosis ATCC 90018; settings: C. parapsilosis ATCC 90018; MIC acceptable range of NCCLS M27-A; cited from earlier work
[18] = system: Candida tropicalis ATCC 750; settings: C. tropicalis ATCC 750; MIC acceptable range of NCCLS M27-A; cited from earlier work

MIC [1] [µg/mL] | MIC [2] [µg/mL] | MIC (Candida krusei ATCC 6258 [3]) [µg/mL] | MIC [4] [µg/mL] | MIC [5] [µg/mL] | MIC [6] [µg/mL] | MIC [7] [µg/mL] | MIC [8] [µg/mL] | MIC (Candida krusei ATCC 6258 [9]) [µg/mL] | MIC [10] [µg/mL] | MIC [11] [µg/mL] | MIC [12] [µg/mL] | Compound | MIC reference range [13] [µg/mL] | MIC reference range (Candida krusei ATCC 6258 [14]) [µg/mL] | MIC reference range [15] [µg/mL] | MIC reference range [16] [µg/mL] | MIC reference range [17] [µg/mL] | MIC reference range [18] [µg/mL] | further results
 |  |  |  |  |  |  |  |  |  |  |  | C[C@@H]1[C@H](O)[C@@H](C)/C=C/C=C/C=C/C=C/C=C/C=C/C=C/[C@H](O[C@@H]2O[C@H](C)[C@@H](O)[C@H](N)[C@@H]2O)C[C@@H]2O[C@](O)(C[C@@H](O)C[C@@H](O)[C@H](O)CC[C@@H](O)C[C@@H](O)CC(=O)O[C@H]1C)C[C@H](O)[C@H]2C(=O)O [AMPH, Amphotericine B] | 0.25 to 1.0 | 0.5 to 2.0 | 0.5 to 2.0 | 0.25 to 1.0 | 0.5 to 2.0 | 0.5 to 2.0 | MIC, Turbidity method [1]: 0.12 to 0.5 µg/mL; MIC, Turbidity method [2]: 0.12 to 0.5 µg/mL; MIC, Turbidity method (Candida krusei ATCC 6258 [3]): 0.12 to 0.5 µg/mL; MIC, Turbidity method [4]: 0.06 to 0.25 µg/mL; MIC, Turbidity method [5]: 0.12 to 0.25 µg/mL; MIC, Turbidity method [6]: 0.12 to 0.5 µg/mL; MIC, Method of the invention [7]: 0.12 to 0.5 µg/mL; MIC, Method of the invention [8]: 0.12 to 0.5 µg/mL; MIC, Method of the invention (Candida krusei ATCC 6258 [9]): 0.25 to 0.5 µg/mL; MIC, Method of the invention [10]: 0.12 to 1.0 µg/mL; MIC, Method of the invention [11]: 0.12 to 0.25 µg/mL; MIC, Method of the invention [12]: 0.12 to 0.5 µg/mL
0.06 to 0.5 (≈ 0.144 to 1.2 µM) | 0.06 to 0.12 (≈ 0.144 to 0.288 µM) | 0.25 to 1 (≈ 0.601 to 2.4 µM) | 0.25 to 0.5 (≈ 0.601 to 1.2 µM) | 0.06 to 0.25 (≈ 0.144 to 0.601 µM) | 0.12 to 1 (≈ 0.288 to 2.4 µM) | 0.06 to 1 (≈ 0.144 to 2.4 µM) | 0.06 to 0.12 (≈ 0.144 to 0.288 µM) | 0.25 to 1 (≈ 0.601 to 2.4 µM) | 0.5 to 1 (≈ 1.2 to 2.4 µM) | 0.12 to 0.5 (≈ 0.288 to 1.2 µM) | 0.25 to 2 (≈ 0.601 to 4.81 µM) | Clc1ccc(COC(Cn2ccnc2)c2ccc(Cl)cc2Cl)c(Cl)c1 (stereo not drawn) [MCZ, Miconazole] |  |  |  |  |  |  | 
0.5 to 2 (≈ 3.87 to 15.5 µM) | 0.25 to 2 (≈ 1.94 to 15.5 µM) | 8 to 16 (≈ 62 to 124 µM) | 0.12 to 0.5 (≈ 0.93 to 3.87 µM) | 0.12 (≈ 0.93 µM) | 0.12 (≈ 0.93 µM) | 0.5 to 2 (≈ 3.87 to 15.5 µM) | 0.25 to 1 (≈ 1.94 to 7.75 µM) | 8 to 16 (≈ 62 to 124 µM) | 0.12 to 0.5 (≈ 0.93 to 3.87 µM) | 0.12 (≈ 0.93 µM) | 0.12 (≈ 0.93 µM) | Nc1[nH]c(=O)ncc1F [5-FC, Flucytosine] | 0.12 to 0.5 | 4.0 to 16 | 0.5 to 2.0 | 1.0 to 4.0 | 0.12 to 0.25 | 0.12 to 0.25 | 
0.12 to 1 (≈ 0.392 to 3.27 µM) | 0.12 to 0.25 (≈ 0.392 to 0.816 µM) | 8 to 64 (≈ 26.1 to 209 µM) | 1 to 2 (≈ 3.27 to 6.53 µM) | 0.5 (≈ 1.63 µM) | 0.5 to 1 (≈ 1.63 to 3.27 µM) | 0.25 to 8 (≈ 0.816 to 26.1 µM) | 0.25 to 1 (≈ 0.816 to 3.27 µM) | 16 to 64 (≈ 52.2 to 209 µM) | 2 to 4 (≈ 6.53 to 13.1 µM) | 0.5 to 2 (≈ 1.63 to 6.53 µM) | 0.5 to 2 (≈ 1.63 to 6.53 µM) | OC(Cn1cncn1)(Cn1cncn1)c1ccc(F)cc1F [FLCZ, Fluconazole] | 2.0 to 8.0 | 16 to 64 | 0.25 to 1.0 | 0.25 to 1.0 | 0.25 to 1.0 | 1.0 to 4.0 | 
